Data set [1] in a line: Optical clarity of water containing SFAE/carotenoid composition (% transmittance at 800 nm). The class given is physicochemical. Conditions: liquid conc. product 20% L-1695 ester. The method, then:
(§1) Optical clarity was examined using SFAE/carotenoid liquid compositions in potable water and a model beverage system. The SFAE/carotenoid dry composition are used in a model beverage system. Liquid SFAE/carotenoid compositions were made by slowly mixing the appropriate weight percent of SFAE into the water until dissolved (Tables 2-5). At this point, the carotenoid was mixed into the SFAE/water mixture until evenly dispersed. The dry SFAE/lutein composition was prepared by removing the water from the liquid SFAE/lutein composition using a horizontal wiped film evaporator until the total moisture was less than 1%. These SFAE/carotenoid compositions were added either to potable water or to the model beverage system. The optical clarity was measured using a Hewlett Packard UV-Visible Spectrophotometer Model 8453. The instrument was blanked with water for the water trial and control beverage for the beverage trials. A quartz cuvette having a 1 cm path length is rinsed three times with the sample and then the transmittance at 800 nm is read from the spectrophotometer.

A short description of data set [2]: Optical clarity of model beverage system containing SFAE/carotenoid composition (% transmittance at 800 nm). The class given is physicochemical. The following applies: liquid conc. product 20% L-1695 ester. The procedure:
as §1

Data set [3] is described as follows: Stability against ringing and settling of SFAE/carotenoid compositions in model beverage system. The class given is physicochemical. The following applies: 3 mg carotenoid/8 fl. oz. serving, 20% SFAE/1% lycopene. From the text: The objective of this experiment was to determine the stability of a sucrose fatty acid ester/carotenoid suspension in aqueous compositions. For the purposes of this discussion, stability will be defined as the resistance to produce a deposit of the carotenoid around the perimeter of the container in the region of the surface of the beverage (ringing). There are several factors that may affect the stability against ringing in aqueous compositions. It is possible that an optimal level of SFAE is required to keep the carotenoid in the suspension. The hydrophilic/lipophilic balance (HLB) of the SFAE may affect the interaction of the carotenoids with the aqueous composition. Additionally, the inclusion level of the SFAE/carotenoid suspension may determine the stability against ringing. […] These factors have been examined to determine whether there are optimal levels of SFAE and carotenoids that contribute to the stability against ringing. Stability against ringing was examined using SFAE/carotenoid liquid compositions in potable water and a model beverage system. The SFAE/carotenoid dry composition was used in a model beverage system. Liquid SFAE/carotenoid compositions were made by slowly mixing the appropriate weight percent of SFAE into the water until dissolved (Table 6). At this point the carotenoid was mixed into the SFAE/water mixture until evenly dispersed. […]

Data set [4] deals with age-related macular degeneration. Conditions: consumption of lutein and zeaxanthin together; cited from earlier work.
Where [5] appears, read: 0.5 mg carotenoid/8 oz serving, 1% carotenoid.
[6] abbreviates: 3.0 mg carotenoid/8 oz serving, 1% carotenoid.
Where [7] appears, read: 0.5 mg carotenoid/8 oz serving, 5% carotenoid.
[8] abbreviates: 1.5 mg carotenoid/8 oz serving, 5% carotenoid.
Setting [9] is: 3.0 mg carotenoid/8 oz serving, 5% carotenoid.

SMILES strings stand for the structures.

`CC(C)=CCC/C(C)=C/C=C/C(C)=C/C=C/C(C)=C/C=C/C=C(C)/C=C/C=C(C)/C=C/C=C(\C)CCC=C(C)C` [lycopene, Lycopene]: the “Optical Clarity” value in data set [1] (setting [5]) was determined as 97.989 % transmittance at 800 nm; in data set [1] (1.5 mg carotenoid/8 oz serving, 1% carotenoid) it was 88.387 % transmittance at 800 nm; in data set [1] (setting [6]), 72.401 % transmittance at 800 nm; in data set [2] (setting [5]), 94.934 % transmittance at 800 nm; in data set [2] (setting [6]), 50.180 % transmittance at 800 nm. Moreover, the “settling (in words)” value in data set [3] was “considerable amount of settling”.

`CC1=C(/C=C/C(C)=C/C=C/C(C)=C/C=C/C=C(C)/C=C/C=C(C)/C=C/C2=C(C)CCCC2(C)C)C(C)(C)CCC1` [β-carotene, β-Carotene]: the “Optical Clarity” value was 96.759 % transmittance at 800 nm in data set [1] (setting [7]); 94.275 % transmittance at 800 nm in data set [1] (setting [8]); 87.407 % transmittance at 800 nm in data set [1] (setting [9]); 99.314 % transmittance at 800 nm in data set [2] (setting [7]); 89.643 % transmittance at 800 nm in data set [2] (setting [9]).

As for `CC1=C(/C=C/C(C)=C/C=C/C(C)=C/C=C/C=C(C)/C=C/C=C(C)/C=C/C2=C(C)C[C@@H](O)CC2(C)C)C(C)(C)C[C@H](O)C1` [zeaxanthin, Zeaxanthin], the “Optical Clarity” value in data set [1] (setting [7]) came out at 98.213 % transmittance at 800 nm; in data set [1] (setting [8]), 95.692 % transmittance at 800 nm; in data set [1] (setting [9]) it was 94.110 % transmittance at 800 nm; in data set [2] (setting [7]), 99.102 % transmittance at 800 nm; in data set [2] (setting [9]) it was 87.707 % transmittance at 800 nm. Also, the “reduction in age-related macular degeneration” value in data set [4] is 57%.

Take `CC1=C[C@H](O)CC(C)(C)[C@H]1/C=C/C(C)=C/C=C/C(C)=C/C=C/C=C(C)/C=C/C=C(C)/C=C/C1=C(C)C[C@@H](O)CC1(C)C` [lutein, Lutein]: the “Optical Clarity” value in data set [1] (setting [7]) is given as 104.73 % transmittance at 800 nm; in data set [1] (setting [8]), 101.01 % transmittance at 800 nm; in data set [1] (setting [9]) it was 93.735 % transmittance at 800 nm; in data set [2] (setting [7]), 97.609 % transmittance at 800 nm; in data set [2] (setting [9]), 83.017 % transmittance at 800 nm. In addition, the “reduction in age-related macular degeneration” value in data set [4] was 57%.
